Laboratory results taken from article PMC8000447, “Assessment of Finite and Infinite Dose In Vitro Experiments in Transdermal Drug Delivery” (Pharmaceutics, 2021).
“And” between values parts separate entries of the source, which are not always exact repeats. Identical values can stand only once.

Experiments:
[1] = Penetration assay with finite dosage using vertical Franz diffusion cells; assay type: in vitro ADME, pig; details: 24 h; for % API detected in dermis (D) / % API detected in epidermis (E) / % API detected in receptor fluid (RF) / % API detected in stratum corneum (SC): finite dose 20 µL in propylene glycol, normalized amount, mean ± SD, n = 3; for % API total permeation (Perm): sum of epidermis, dermis and receptor fluid, finite dose 20 µL
Description: (§1) A porcine skin membrane was employed for both the permeation and penetration assays. […] The skin was provided by the Department of Cardiology of the Hospital Clinic (Barcelona, Spain). Dorsal unboiled skin (female white/landrace pigs) was prepared: the bristles were removed (A5 Clipper 78005-500, Oster professional, McMinnville, OR, USA) and dermatomed (Dermatome GA630, Aesculap, Tuttlingen, Germany) at 500 ± 50 μm thick. Thickness was verified with a digital micrometer 40EX (Mahr, Göttingen, Germany). Skin biopsies were cut into discs with 2.5 cm diameter. The skin discs were stored until the experiment (at −20 °C).
OECD guidelines and the published opinions of the Scientific Committee on Cosmetic Products and Non-Food Products (SCCS) were adhered in the penetration protocol. The excised pig skin was placed in a static Franz diffusion cell (Lara Spiral, Couternon, France) (1.86 cm^2 and 3 mL) with the dermis side facing the acceptor chamber. The receptor chamber was filled with receptor fluid. The receptor fluid was the same used in the kinetic assay (Section 2.4). Air bubbles entrapped below the skin were carefully removed and the assembled cells were deposited in a temperature-regulated water bath (Telesystem HP 15, H+P Labortechnik GmgH, Oberschleissheim, Germany) on top of a water-resistant magnetic stirring plate (Variomag 15 and Telemodul, H+P Labortechnik GmgH, Oberschleissheim, Germany). The homogeneity of receptor fluid was maintained by continuously stirring at 700 rpm. The system was thermostatted at 43 ± 1 °C to provide a skin surface temperature of 32 ± 1 °C.
The integrity and permeability of membranes were evaluated with the trans-epidermal water loss (TEWL) value as detailed in Section 2.3.
The finite assay protocol was conducted as described in previous studies. Briefly, 20 µL of each API solution was applied to the skin surface in the donor chamber (n = 3). According to the OECD methodology used, penetration studies were performed for 24 h. After the exposure time, the receptor fluid of all the membranes was collected to transfer to a 5 mL volumetric flask. The remaining API solution was removed from skin surface with specific washing procedure (W). Stratum corneum layers were obtained by tape stripping protocol with adhesive tape (D-Squame, Cuderm Corporation, Dallas, TX, USA) applied under controlled pressure (80 g/cm^2). Viable epidermis (E) and the dermis (D) were separated after heating the skin at 80 °C for several seconds. All samples were extracted with adequate solvent (Table 1) and filtered with a 0.45 µm Nylon filter (Cameo, Sigma-Aldrich, St. Louis, MO, USA) before HPLC quantification (Section 2.6).
The amount permeated in the skin was considered the sum of that in the epidermis, dermis, and receptor fluid. […]

[2] = Kinetic permeation assay with infinite dosage using vertical Franz diffusion cells; assay type: in vitro ADME, pig; details: infinite dose 300 µL in propylene glycol (DS 3%, IBU 1%, LIDO 2%, CAF 1% w/v); for Papp / AUC / Cmax: female, white/landrace, pig; for Papp / AUC / Cmax / J (flux) / AUC (%): mean ± SD; for Papp / J (flux): n = 3; for Papp: read-out: Kp (permeability coefficient) (converted); for AUC / Cmax: receptor fluid; for AUC: read-out: AUC (area under the curve); for Cmax: read-out: Cmax (maximum concentration); for Kin. of release (best-fitting kinetic model): up to 30 h; for AUC (%): percentage release
Description: as §1
The kinetic diffusion assay was conducted using a Vision Microette (Vision G2 V14.1) with an Autosampler and an Autofill Collector (Hanson Research, Chatworths, CA, USA) automated vertical diffusion cell (7 mL acceptor chamber, and surface area of application of 1.77 cm^2).
The receptor fluid (RF) used was aqueous buffer solution of PBS in the case of DS, IBU, and CAF, and NaH2PO4 (0.05 M, pH = 7) in the case of LIDO. Receptor fluid was continuously stirred with magnetic beads at 700 rpm to keep the contents of the receptor chamber homogenous. The system was thermostatted at 43 ± 1 °C to provide a skin surface temperature of 32 ± 1 °C.
Once TEWL was measured, 300 μL (infinite dose) of the four active solutions was applied in triplicate to each Franz cell (Hanson Research, Chatworths, CA, USA) and donor compartment was sealed to donor chamber to avoid evaporation. Samples (700 µL) were collected at specific times (15 min, 30 min, 1 h, 2 h, 4 h, 6 h, 10 h, 20 h, and 30 h), and automatically passed into the corresponding vial. The same volume of receptor fluid was automatically replaced with fresh solution at each sampling. The content of receptor samples was diluted in 2 mL graduated flasks and filtered with a 0.45 µm nylon filter (Cameo, Sigma-Aldrich, St Louis, MO, USA) previous analyzed with a high-performance liquid chromatography-diode array detector (HPLC-DAD) (Section […]). The kinetics of penetration were determined, simulating the drug elimination in the body.
The cumulative amount of the active pharmaceutical ingredient (API) per surface area (Qn, µg/cm^2) was obtained for each replicate cell to calculate the release of the four APIs. The equation used to determine the cumulative amount of API in the receptor fluid was the following Equation (1):(1) Qn= Cn×Vc+ ∑i=1n−1Ci×Vs/A where Qn is the cumulative amount of API released at time n (μg/cm^2); Cn is the concentration of active ingredient in the sample (μg/mL); Vc is the volume of the vertical diffusion cell; ∑i=1n−1 Ci is the sum of the concentrations of API (µg/mL) determined at sampling intervals 1 through n − 1; Vs is the sample volume and A is the surface area of the sample.
The percentage of cumulative amount of API permeated over time was calculated by the following Equation (2):(2) % Release API= Qn/Total amount of API applied×100
Experimental data of cumulative amount (Qn and % Release API) were plotted versus time or its square root ( t ) to obtain the API absorption and penetration kinetics. Different mathematical model (Zero-order, First-order and Higuchi) were evaluated with the non-linear regression software STATGRAPHICS plus 5 (Statgraphics Technologies, Inc., The Plains, VA, USA). The best-fitting model was selected according to the highest correlation coefficient value (r^2) and it was possible to calculate other parameters, such as flux (J), the permeability coefficient (Kp), lag time (Tl), the maximum concentration (Cmax), the maximum time (tmax), and the area under the curve (AUC).

% API detected in dermis (D) [1]	% API detected in epidermis (E) [1]	% API detected in receptor fluid (RF) [1]	% API detected in stratum corneum (SC) [1]	% API total permeation (Perm) [1]	Papp [2]	AUC [2]	Cmax [2]	J (flux) [2]	Kin. of release (best-fitting kinetic model) [2]	AUC (%) [2]	Structure (SMILES)
1.41 ± 0.49%	5.54 ± 2.41%	8.53 ± 3.99%	8.08 ± 2.62%	15.49 ± 6.89%	0.0442 ×10⁻⁶ cm/s	168 ± 38.5 µg·h/mL	38100 ± 10000 ng/mL	3.94 ± 0.77 µg/cm^2/h	Ord 0	15.43 ± 4.41%	O=C(O)Cc1ccccc1Nc1c(Cl)cccc1Cl [Diclofenac sodium]
2.79 ± 0.37%	2.92 ± 0.61%	53% and 52.68 ± 5.01%	11% and 11.06 ± 1.15%	58.39 ± 6.32%	0.0694 ×10⁻⁶ cm/s	163 ± 28.3 µg·h/mL	66700 ± 16100 ng/mL	2.60 ± 0.69 µg/cm^2/h	Ord 0	38.97 ± 4.56 %	CC(C)Cc1ccc(C(C)C(=O)O)cc1 (stereo not drawn) [Ibuprofen, ibuprofen]

Structure (SMILES)	% API detected in dermis (D) [1]	% API detected in epidermis (E) [1]	% API detected in receptor fluid (RF) [1]	% API detected in stratum corneum (SC) [1]	% API total permeation (Perm) [1]	Papp [2]	AUC [2]	Cmax [2]	J (flux) [2]	Kin. of release (best-fitting kinetic model) [2]	AUC (%) [2]
Cn1c(=O)c2c(ncn2C)n(C)c1=O [Caffeine, caffeine]	0.55 ± 0.09%	0.55 ± 0.23%	3.62 ± 1.75%	3.11 ± 2.33%	4.72 ± 1.87%	0.0242 ×10⁻⁶ cm/s	72.8 ± 32.6 µg·h/mL	13900 ± 1590 ng/mL	0.86 ± 0.07 µg/cm^2/h	Ord 0	4.55 ± 3.31%
